19 compounds from patent US20230257351A1, “SUBSTITUTED N-[…] HAVING P2X4 RECEPTOR ANTAGONISTIC ACTIVITY” (Bayer Aktiengesellschaft, priority 2020, published 2023) can be followed below.

The target in one assay is T1, rat P2X4 (Rattus norvegicus, UniProt P51577).
T1 construct: expressed in transfected cells
T1 sequence (P51577 1-388): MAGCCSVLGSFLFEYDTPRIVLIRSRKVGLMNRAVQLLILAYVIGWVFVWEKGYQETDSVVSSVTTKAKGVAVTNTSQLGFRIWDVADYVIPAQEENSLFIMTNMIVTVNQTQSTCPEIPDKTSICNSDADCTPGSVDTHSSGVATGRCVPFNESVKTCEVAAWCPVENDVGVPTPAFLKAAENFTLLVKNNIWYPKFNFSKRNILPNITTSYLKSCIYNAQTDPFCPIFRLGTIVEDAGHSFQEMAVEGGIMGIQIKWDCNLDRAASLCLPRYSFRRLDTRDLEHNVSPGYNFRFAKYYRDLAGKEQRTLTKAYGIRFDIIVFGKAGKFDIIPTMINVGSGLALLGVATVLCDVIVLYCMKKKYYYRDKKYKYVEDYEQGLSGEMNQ
Kind of assay: FLIPR Method for Rat P2X4 1321N1 Astrocytoma Cells. The note with it: 1321N1 stably expressing rat P2X4; agonist MgATP 5 μM (EC80). Format: cell-based. The gist of the method:
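1321N1 cells stably expressing rat P2X4, Fluo8-AM loaded; compounds (25 μM to 1 nM final, ten concentrations) preincubated 30 min at room temperature, then MgATP added at 5 μM (EC80). Calcium fluorescence read on FLIPR before and after agonist; triplicate data normalized to agonist control, four-parameter fit gives IC50.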

The target of the next assay is T2, human P2X4 (Homo sapiens, UniProt Q99571).
T2 construct: expressed in transfected cells
T2 sequence (Q99571 1-388): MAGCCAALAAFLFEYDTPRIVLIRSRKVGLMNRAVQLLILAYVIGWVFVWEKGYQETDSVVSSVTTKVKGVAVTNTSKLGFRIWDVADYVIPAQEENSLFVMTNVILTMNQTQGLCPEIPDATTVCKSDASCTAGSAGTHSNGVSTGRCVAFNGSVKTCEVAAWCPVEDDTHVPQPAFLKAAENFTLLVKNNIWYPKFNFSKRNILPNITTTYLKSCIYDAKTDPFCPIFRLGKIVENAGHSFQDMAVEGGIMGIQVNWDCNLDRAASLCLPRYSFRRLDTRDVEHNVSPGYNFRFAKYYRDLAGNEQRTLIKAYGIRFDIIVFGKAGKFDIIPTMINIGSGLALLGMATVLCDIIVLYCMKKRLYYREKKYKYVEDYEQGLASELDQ
Kind of assay: Human P2X4 HEK Cell FLIPR Assay. Format: cell-based. The note with it: HEK293 stably expressing human P2X4, agonist Bz-ATP 3 μM (EC80); for IC50: read-out: Human P2X4 HEK Cells (FLIPR Assay) avg IC50. The gist of the method: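 HEK293 cells stably expressing human P2X4 were loaded with Fluo8-AM (30 min, 37 °C, HBSS/HEPES pH 7.4 with probenecid), then preincubated 30 min at room temperature with compound, 25 μM–1 nM final, 0.5% DMSO. Bz-ATP-evoked calcium fluorescence was read on FLIPR; data were normalized to agonist control and given a four-parameter fit for IC50.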

As for `CC(=O)N(c1cc(F)cc(F)c1)c1cc(NC(=O)Cc2cccc(F)c2Cl)ccn1` [Example 88, N-{4-[2-(2-chloro-3-fluorophenyl)acetamido]pyridin-2-yl}-N-(3,5-difluorophenyl)acetamide], on rat P2X4, the IC50 was determined as 451 nM and the “Rat P2X4 1321N1 Astrocytoma Cells (FLIPR Assay) avg Efficacy” value (“Rat P2X4 1321N1 Astrocytoma Cells” below) is listed as 100%. At human P2X4, the “Human P2X4 HEK Cells (FLIPR Assay) avg Efficacy” value (shortened to “Human P2X4 HEK Cells”) is 97% and the IC50 is 198 nM.
On the same counts, the results for `CC(=O)N(c1cc(F)cc(F)c1)c1cc(NC(=O)Cc2c(Cl)cccc2Cl)ccn1` [Example 89, N-{4-[2-(2,6-dichlorophenyl)acetamido]pyridin-2-yl}-N-(3,5-difluorophenyl)acetamide] are 103 nM, 98%, 99% and 169 nM.
For the compound `CC(=O)N(c1cc(F)cc(F)c1)c1cc(NC(=O)Cc2c(Cl)cc(F)cc2Cl)ccn1` [Example 90, N-{4-[2-(2,6-dichloro-4-fluorophenyl)acetamido]pyridin-2-yl}-N-(3,5-difluorophenyl)acetamide], on rat P2X4, the concentration for half-maximal inhibition (IC50) was found to be 110 nM and the “Rat P2X4 1321N1 Astrocytoma Cells” value is 97%. In addition, at human P2X4, the “Human P2X4 HEK Cells” value was 98% and the 50% inhibitory concentration (IC50) came to 272 nM.
Consider `CC(=O)N(c1cc(F)cc(F)c1)c1cc(NC(=O)Cc2ccccc2OC(F)(F)F)ccn1` [Example 91, N-(3,5-difluorophenyl)-N-(4-{2-[2-(trifluoromethoxy)phenyl]acetamido}pyridin-2-yl)acetamide], for which, on rat P2X4, the IC50 came out at 1630 nM and the “Rat P2X4 1321N1 Astrocytoma Cells” value is listed as 100%. Moreover, at human P2X4, the “Human P2X4 HEK Cells” value is on record as 98% and the 50% inhibitory concentration (IC50) turned out to be 345 nM.
The like results for `COc1cccc(N(C(C)=O)c2cc(NC(=O)Cc3ccccc3Cl)ccn2)c1` [Example 100, N-{4-[2-(2-chlorophenyl)acetamido]pyridin-2-yl}-N-(3-methoxyphenyl)acetamide] were, in that order, 965 nM, 98%, 98% and 408 nM.
For `COc1cccc(N(C(C)=O)c2cc(NC(=O)Cc3cccc(F)c3Cl)ccn2)c1` [Example 101, N-{4-[2-(2-chloro-3-fluorophenyl)acetamido]pyridin-2-yl}-N-(3-methoxyphenyl)acetamide], on rat P2X4, the IC50 worked out at 971 nM and the “Rat P2X4 1321N1 Astrocytoma Cells” value is 100%. On human P2X4, the “Human P2X4 HEK Cells” value stood at 97% and the IC50 is 406 nM.
As for `CC(=O)N(c1cc(NC(=O)Cc2ccccc2Cl)ccn1)c1cc(F)ccc1Cl` [Example 111, N-(2-chloro-5-fluorophenyl)-N-{4-[2-(2-chlorophenyl)acetamido]pyridin-2-yl}acetamide], at rat P2X4, the IC50 was 320 nM and the “Rat P2X4 1321N1 Astrocytoma Cells” value came to 100%. Moreover, on human P2X4, the “Human P2X4 HEK Cells” value turned out to be 96% and the IC50 was 204 nM.
The like results for `CC(=O)N(c1cc(NC(=O)Cc2ccc(F)cc2Cl)ccn1)c1cc(F)ccc1Cl` [Example 112, N-(2-chloro-5-fluorophenyl)-N-{4-[2-(2-chloro-4-fluorophenyl)acetamido]pyridin-2-yl}acetamide] were, in that order, 408 nM, 97%, 96% and 403 nM.
As to `CC(=O)N(c1cc(NC(=O)Cc2cccc(F)c2Cl)ccn1)c1cc(F)ccc1Cl` [Example 113, N-(2-chloro-5-fluorophenyl)-N-{4-[2-(2-chloro-3-fluorophenyl)acetamido]pyridin-2-yl}acetamide], on rat P2X4, the IC50 was found to be 567 nM and the “Rat P2X4 1321N1 Astrocytoma Cells” value amounted to 100%. In addition, at human P2X4, the “Human P2X4 HEK Cells” value was 97% and the IC50 was 286 nM.
On the same counts, the results for `CC(=O)N(c1cc(NC(=O)Cc2c(Cl)cccc2Cl)ccn1)c1cc(F)ccc1Cl` [Example 114, N-(2-chloro-5-fluorophenyl)-N-{4-[2-(2,6-dichlorophenyl)acetamido]pyridin-2-yl}acetamide] are 181 nM, 99%, 97% and 256 nM.
Turning to `CC(=O)N(c1cc(NC(=O)Cc2ccc(F)cc2Cl)ccn1)c1cccc(F)c1F` [Example 123, N-{4-[2-(2-chloro-4-fluorophenyl)acetamido]pyridin-2-yl}-N-(2,3-difluorophenyl)acetamide], at rat P2X4, the IC50 was 633 nM and the “Rat P2X4 1321N1 Astrocytoma Cells” value is given as 89%. Further, on human P2X4, the “Human P2X4 HEK Cells” value came to 97% and the IC50 was 435 nM.
On the same counts, the results for `CC(=O)N(c1cc(NC(=O)Cc2ccccc2Cl)ccn1)c1ccc(F)cc1F` [Example 126, N-{4-[2-(2-chlorophenyl)acetamido]pyridin-2-yl}-N-(2,4-difluorophenyl)acetamide] are 377 nM, 83%, 96% and 176 nM.
With `CC(=O)N(c1cc(NC(=O)Cc2ccc(F)cc2Cl)ccn1)c1ccc(F)cc1F` [Example 127, N-{4-[2-(2-chloro-4-fluorophenyl)acetamido]pyridin-2-yl}-N-(2,4-difluorophenyl)acetamide], at rat P2X4, the IC50 is 261 nM and the “Rat P2X4 1321N1 Astrocytoma Cells” value came to 72%. For the same compound, on human P2X4, the “Human P2X4 HEK Cells” value was found to be 97% and the concentration for half-maximal inhibition (IC50) stood at 283 nM.
For `CC(=O)N(c1cc(NC(=O)Cc2cccc(F)c2Cl)ccn1)c1ccc(F)cc1F` [Example 128, N-{4-[2-(2-chloro-3-fluorophenyl)acetamido]pyridin-2-yl}-N-(2,4-difluorophenyl)acetamide], on rat P2X4, the IC50 was 454 nM and the “Rat P2X4 1321N1 Astrocytoma Cells” value was found to be 87%. Besides, at human P2X4, the “Human P2X4 HEK Cells” value was 101% and the concentration for half-maximal inhibition (IC50) was 184 nM.
On the same counts, the results for `CC(=O)N(c1cc(NC(=O)Cc2c(Cl)cccc2Cl)ccn1)c1ccc(F)cc1F` [Example 129, N-{4-[2-(2,6-dichlorophenyl)acetamido]pyridin-2-yl}-N-(2,4-difluorophenyl)acetamide] are 212 nM, 96%, 104% and 197 nM.
Consider `CC(=O)N(c1cc(NC(=O)Cc2c(F)cccc2Cl)ccn1)c1ccc(F)cc1F` [Example 130, N-{4-[2-(2-chloro-6-fluorophenyl)acetamido]pyridin-2-yl}-N-(2,4-difluorophenyl)acetamide], for which, at rat P2X4, the IC50 turned out to be 1520 nM and the “Rat P2X4 1321N1 Astrocytoma Cells” value is 80%. Moreover, on human P2X4, the “Human P2X4 HEK Cells” value is on record as 97% and the IC50 stood at 259 nM.
In the case of `CC(=O)N(c1cccc(Cl)c1)c1cc(NC(=O)Cc2ccccc2Cl)ccn1` [Example 131, N-(3-chlorophenyl)-N-{4-[2-(2-chlorophenyl)acetamido]pyridin-2-yl}acetamide], at rat P2X4, the IC50 was 262 nM and the “Rat P2X4 1321N1 Astrocytoma Cells” value is listed as 98%. On human P2X4, the “Human P2X4 HEK Cells” value is reported as 98% and the IC50 turned out to be 206 nM.
In the case of `CC(=O)N(c1cccc(Cl)c1)c1cc(NC(=O)Cc2ccc(F)cc2Cl)ccn1` [Example 132, N-{4-[2-(2-chloro-4-fluorophenyl)acetamido]pyridin-2-yl}-N-(3-chlorophenyl)acetamide], on rat P2X4, the IC50 is 228 nM and the “Rat P2X4 1321N1 Astrocytoma Cells” value stood at 97%. On human P2X4, the “Human P2X4 HEK Cells” value stood at 98% and the concentration for half-maximal inhibition (IC50) was 299 nM.
The like results for `CC(=O)N(c1cccc(Cl)c1)c1cc(NC(=O)Cc2cccc(F)c2Cl)ccn1` [Example 133, N-{4-[2-(2-chloro-3-fluorophenyl)acetamido]pyridin-2-yl}-N-(3-chlorophenyl)acetamide] were, in that order, 325 nM, 100%, 100% and 193 nM.

In general, IC50 refers to the concentration that inhibits the measured activity by half.
